Key:
GSK3β = GSK3β (Homo sapiens, UniProt P49841); test: Inhibitory activity against GSK3β (33P-ATP phosphorylation of prephosphorylated GS1 peptide); assay type: biochemical; conditions: protocol 3: 7.5 μM GS1 peptide, 10 μM ATP, 50 mM Hepes pH 7.2, one hour, room temperature
Experimental: Four different protocols can be used.
In a first protocol: 7.5 μM of prephosphorylated GS1 peptide and 10 μM ATP (containing 300,000 cpm of ^33P-ATP) were incubated in 25 mM Tris-HCl, pH 7.5, 0.6 mM DTT, 6 mM MgCl2, 0.6 mM EGTA, 0.05 mg/ml BSA buffer for 1 hour at room temperature in the presence of GSK3beta (total reaction volume: 100 microliters).
In a second protocol: 4.1 μM of prephosphorylated GS1 peptide and 42 μM ATP (containing 260,000 cpm ^33P-ATP) were incubated in 80 mM Mes-NaOH, pH 6.5, 1 mM Mg acetate, 0.5 mM EGTA, 5 mM 2-mercaptoethanol, 0.02% Tween 20, 10% glycerol buffer for 2 hours at room temperature in the presence of GSK3beta.
In a third protocol: 7.5 μM of prephosphorylated GS1 peptide and 10 μM ATP (containing 300,000 cpm of ^33P-ATP) were incubated in 50 mM Hepes, pH 7.2, 1 mM DTT, 1 mM MgCl2, 1 mM EGTA, 0.01% Tween 20 buffer for one hour at room temperature in the presence of GSK3beta (total reaction volume: 100 microliters). […]
The reaction was stopped with 100 microliters of a solution made of 25 g polyphosphoric acid (85% P2O5), 126 ml 85% H3PO4, H2O to 500 ml and then diluted to 1:100 before use. […] Incorporated ^33P radioactivity was determined by liquid scintillation spectrometry. […]

GSK3β, sequence (P49841 whole entry): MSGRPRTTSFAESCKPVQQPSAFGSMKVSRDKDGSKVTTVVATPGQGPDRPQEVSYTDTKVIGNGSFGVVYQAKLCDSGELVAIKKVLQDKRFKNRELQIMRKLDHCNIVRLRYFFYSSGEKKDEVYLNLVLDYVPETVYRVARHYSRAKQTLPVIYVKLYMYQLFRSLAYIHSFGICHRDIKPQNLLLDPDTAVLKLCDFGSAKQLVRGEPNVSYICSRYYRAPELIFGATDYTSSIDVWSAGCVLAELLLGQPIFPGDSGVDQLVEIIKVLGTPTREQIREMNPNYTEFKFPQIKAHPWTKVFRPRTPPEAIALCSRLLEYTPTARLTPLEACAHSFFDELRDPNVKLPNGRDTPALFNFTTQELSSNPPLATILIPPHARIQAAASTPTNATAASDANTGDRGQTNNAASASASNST

IC50 (GSK3β): 6 nM | melting point: 263 to 265 °C
Structure (SMILES): O=C(CN1c2ccccc2Cn2c1nc(-c1ccncn1)cc2=O)c1ccccc1 [Compound No. 3, 9-(2-Oxo-2-phenyl-ethyl)-2-pyrimidin-4-yl-9,10-dihydro-1,4a,9-triaza-anthracen-4-one]

From patent publication US8273758B2, “Substituted tricyclic derivatives” (Sanofi, priority 2008, dated 2012)
